Active and inactive are the calls of the source. Cut-off read from the data, not from the text of the source: actives have a measured IC50 and inactives only a lower limit.

For the assay, the target named is Envelope glycoprotein gp160 (Human immunodeficiency virus 1, UniProt Q6QLK5). The experiment in a line: inhibitors of HIV fusion peptide binding, primary screen, biochemical, uHTS, fluorescence dequenching (AID 1986).
Envelope glycoprotein gp160, sequence (Q6QLK5 whole entry, the tested form may be a part): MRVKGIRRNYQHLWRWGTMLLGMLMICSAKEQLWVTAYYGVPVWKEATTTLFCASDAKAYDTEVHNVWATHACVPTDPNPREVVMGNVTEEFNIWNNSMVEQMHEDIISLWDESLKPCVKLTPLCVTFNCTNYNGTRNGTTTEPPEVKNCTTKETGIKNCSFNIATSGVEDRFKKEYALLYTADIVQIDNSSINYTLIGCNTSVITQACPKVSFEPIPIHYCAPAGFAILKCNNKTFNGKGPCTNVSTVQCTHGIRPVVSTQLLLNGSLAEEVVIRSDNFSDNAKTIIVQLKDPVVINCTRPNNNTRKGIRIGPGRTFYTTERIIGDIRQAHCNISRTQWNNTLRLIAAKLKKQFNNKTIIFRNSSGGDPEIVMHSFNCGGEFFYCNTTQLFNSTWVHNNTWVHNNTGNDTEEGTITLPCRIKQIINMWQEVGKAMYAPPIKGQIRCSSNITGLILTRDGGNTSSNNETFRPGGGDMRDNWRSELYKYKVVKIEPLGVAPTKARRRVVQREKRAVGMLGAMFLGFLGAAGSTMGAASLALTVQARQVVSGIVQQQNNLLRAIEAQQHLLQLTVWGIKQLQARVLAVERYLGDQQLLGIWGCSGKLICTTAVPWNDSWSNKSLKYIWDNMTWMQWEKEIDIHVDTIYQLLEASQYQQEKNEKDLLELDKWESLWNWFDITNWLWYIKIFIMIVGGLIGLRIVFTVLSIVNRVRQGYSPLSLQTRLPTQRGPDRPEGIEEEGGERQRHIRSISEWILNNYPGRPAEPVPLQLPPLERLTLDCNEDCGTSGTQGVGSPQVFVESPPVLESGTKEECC
Regarding `COc1ccc(-c2cc(-c3ccc(Cl)cc3)c(C#N)c(SCC(=O)O)n2)cc1`, the 50% inhibitory concentration (IC50) (in general, the point on the concentration scale where inhibition reaches its midpoint) is 19.4 µM (active). The result for `CCOc1cc(/C=C2\C(=O)N(c3cccc(C(=O)O)c3)N=C2C(F)(F)F)ccc1OCC(=O)Nc1ccccc1OC` reads 3.88 µM (active). The result for `O=C(O)c1ccc(/C=N/NC(=O)c2ccc(CN3c4cccc5cccc(c45)S3(=O)=O)cc2)cc1` reads 19.7 µM (active); that for `O=C(NCCc1ccccc1)c1ccc2c(=O)[nH]c3c(C(=O)NCC4CCCO4)sc(=S)n3c2c1` (centres undefined), 27.8 µM (active).

Source of the values: ChEMBL document CHEMBL1201862, “PubChem BioAssay data set” (2004).
